According to PubChem BioAssay (NCI):
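Five compound concentrations were applied to cells in 96-well plates for 48 hours; endpoints were derived by simple linear interpolation of the resulting dose-response curve. The concentration for 50% growth inhibition is given as GI50. Definition used: TGI = concentration required for complete inhibition of growth.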

How the values were obtained:
Test in all cases: DTP human tumour cell line panel, 48 h
COLO 205 colon = system: COLO 205 colon
HCC-2998 colon = system: HCC-2998 colon
HCT-116 colon = system: HCT-116 colon
HOP-92 NSCLC = system: HOP-92 NSCLC
HT29 colon = system: HT29 colon
IGROV1 ovarian = system: IGROV1 ovarian
OVCAR-5 ovarian = system: OVCAR-5 ovarian
SF-268 CNS = system: SF-268 CNS
SNB-19 CNS = system: SNB-19 CNS
SR leukemia = system: SR leukemia

## COc1cc(CNc2oc(-c3ccccc3)c(-c3ccccc3)c2C#N)cc(CN2CCN(C)CC2)c1O
COLO 205 colon
  GI50: 1.98 µM
  TGI: 4.05 µM
HCC-2998 colon
  GI50: 1.79 µM
  TGI: 3.36 µM
HCT-116 colon
  GI50: 1.55 µM
  TGI: 4.17 µM
HOP-92 NSCLC
  GI50: 2.34 µM
  TGI: 10.2 µM
HT29 colon
  GI50: 1.92 µM
  TGI: 3.99 µM
IGROV1 ovarian
  GI50: 1.58 µM
  TGI: 3.25 µM
OVCAR-5 ovarian
  GI50: 1.73 µM
  TGI: 3.55 µM
SF-268 CNS
  GI50: 1.79 µM
  TGI: 3.7 µM
SNB-19 CNS
  GI50: 1.81 µM
  TGI: 3.33 µM
SR leukemia
  GI50: 1.6 µM
  TGI: 4.46 µM

## COc1cc(/C=N/N=C(\N)NO)c([N+](=O)[O-])cc1OC
COLO 205 colon
  TGI: > 100 µM
HCC-2998 colon
  TGI: > 100 µM
HCT-116 colon
  TGI: 75.1 µM
HOP-92 NSCLC
  TGI: 91.7 µM
HT29 colon
  TGI: > 100 µM
IGROV1 ovarian
  TGI: > 100 µM
OVCAR-5 ovarian
  TGI: > 100 µM
SF-268 CNS
  TGI: 99.2 µM
SNB-19 CNS
  TGI: > 100 µM
SR leukemia
  TGI: > 100 µM

## CC[C@H](C)[C@H](NC(=O)c1cccn1C)C(=O)N(C)[C@H](C[C@@H](OC(C)=O)c1nc(C(=O)N[C@@H](Cc2ccccc2)C[C@H](C)C(=O)OC)cs1)C(C)C
COLO 205 colon
  GI50: 0.15 µM
  TGI: 0.576 µM
HCC-2998 colon
  GI50: 0.166 µM
  TGI: > 33.3 µM
HCT-116 colon
  GI50: 0.127 µM
  TGI: > 11.3 µM
HOP-92 NSCLC
  GI50: 0.13 µM
  TGI: 5.08 µM
HT29 colon
  GI50: 0.205 µM
  TGI: > 29.5 µM
IGROV1 ovarian
  GI50: 0.228 µM
  TGI: > 33.3 µM
OVCAR-5 ovarian
  GI50: 0.65 µM
  TGI: > 33.3 µM
SF-268 CNS
  GI50: 0.351 µM
  TGI: > 33.3 µM
SNB-19 CNS
  GI50: 0.196 µM
  TGI: > 33.3 µM
SR leukemia
  GI50: 0.0546 µM
  TGI: > 33.3 µM

## Cc1cc(O)c(-c2ccc([C@@H](C)CN(C)C)cc2)c2c1[nH]c(=O)c1sccc12
COLO 205 colon
  GI50: 2.18 µM
  TGI: 5.2 µM
HCC-2998 colon
  GI50: 1.06 µM
  TGI: 12.6 µM
HCT-116 colon
  GI50: 0.406 µM
  TGI: 8.87 µM
HOP-92 NSCLC
  GI50: 0.848 µM
  TGI: 5.35 µM
HT29 colon
  GI50: 2.76 µM
  TGI: 7.81 µM
IGROV1 ovarian
  GI50: 0.534 µM
  TGI: 5.16 µM
OVCAR-5 ovarian
  GI50: 2.25 µM
  TGI: 17.5 µM
SF-268 CNS
  GI50: 1.14 µM
  TGI: 14.8 µM
SNB-19 CNS
  GI50: 0.724 µM
  TGI: 23.3 µM
SR leukemia
  GI50: 0.363 µM
  TGI: 26.6 µM

## N#Cc1cccc(C2C3=C(COC3=O)N(CCO)c3cc4c(cc32)OCO4)c1 (centres undefined)
COLO 205 colon
  GI50: 1.58 µM
  TGI: > 50 µM
HCC-2998 colon
  GI50: 4.6 µM
  TGI: > 50 µM
HCT-116 colon
  GI50: 1.43 µM
  TGI: > 50 µM
HOP-92 NSCLC
  GI50: 2.66 µM
  TGI: > 50 µM
HT29 colon
  GI50: 1.49 µM
  TGI: > 50 µM
IGROV1 ovarian
  GI50: 8.08 µM
  TGI: > 50 µM
OVCAR-5 ovarian
  GI50: 7.92 µM
  TGI: > 50 µM
SF-268 CNS
  GI50: 3.99 µM
  TGI: > 50 µM
SNB-19 CNS
  GI50: 2.69 µM
  TGI: > 50 µM
SR leukemia
  GI50: 0.313 µM
  TGI: > 50 µM

## CC(C)(C)OC(=O)Nc1ccc2c(c1)C(NC(=O)Nc1cccc(C#N)c1)CC(C)(C)O2 (centres undefined)
COLO 205 colon
  GI50: 3.46 µM
  TGI: 15.3 µM
HCC-2998 colon
  GI50: 4.93 µM
  TGI: > 100 µM
HCT-116 colon
  GI50: 1.24 µM
  TGI: > 44.6 µM
HOP-92 NSCLC
  GI50: 4.06 µM
  TGI: > 28.3 µM
HT29 colon
  GI50: 6.71 µM
  TGI: > 100 µM
IGROV1 ovarian
  GI50: 4.44 µM
  TGI: > 100 µM
OVCAR-5 ovarian
  GI50: 28 µM
  TGI: > 100 µM
SF-268 CNS
  GI50: 5.1 µM
  TGI: > 100 µM
SNB-19 CNS
  GI50: 3.54 µM
  TGI: > 100 µM
SR leukemia
  GI50: 2.18 µM
  TGI: 30 µM

## Nc1cccc2c1C(=O)c1cccc(NC(=O)c3ccccc3)c1C2=O
COLO 205 colon
  GI50: 0.354 µM
  TGI: 6.74 µM
HCC-2998 colon
  GI50: 2.79 µM
  TGI: > 100 µM
HCT-116 colon
  GI50: 0.401 µM
  TGI: 5.17 µM
HOP-92 NSCLC
  GI50: 0.34 µM
  TGI: 6.72 µM
HT29 colon
  GI50: 0.291 µM
  TGI: 2.67 µM
IGROV1 ovarian
  GI50: 0.503 µM
  TGI: > 81.4 µM
OVCAR-5 ovarian
  GI50: 1.92 µM
  TGI: > 100 µM
SF-268 CNS
  GI50: 0.576 µM
  TGI: > 100 µM
SNB-19 CNS
  GI50: 0.591 µM
  TGI: > 100 µM
SR leukemia
  GI50: 0.165 µM
  TGI: > 100 µM

## N#Cc1cccc(N2C(=O)C3C4C=CC(C3C2=O)C2C(=O)N(c3cccc(C#N)c3)C(=O)C42)c1 (centres undefined)
COLO 205 colon
  TGI: > 63.1 µM
HCC-2998 colon
  TGI: > 56.2 µM
HCT-116 colon
  TGI: 31.6 µM
HOP-92 NSCLC
  TGI: 31.6 µM
HT29 colon
  TGI: > 63.1 µM
IGROV1 ovarian
  TGI: 49.2 µM
OVCAR-5 ovarian
  TGI: > 63.1 µM
SF-268 CNS
  TGI: 49.7 µM
SNB-19 CNS
  TGI: > 80.1 µM
SR leukemia
  TGI: 49.5 µM

## C=C1C(OC(C)=O)CC(OC(C)=O)C2(C)C(OC(C)=O)C(OC(C)=O)C3=C(C)C(OC(=O)/C=C/c4ccccc4)CC(C(OC(C)=O)C12)C3(C)C (centres undefined)
COLO 205 colon
  TGI: > 100 µM
HCC-2998 colon
  TGI: > 100 µM
HCT-116 colon
  TGI: > 100 µM
HOP-92 NSCLC
  TGI: 65.7 µM
HT29 colon
  TGI: > 100 µM
IGROV1 ovarian
  TGI: > 100 µM
OVCAR-5 ovarian
  TGI: > 100 µM
SF-268 CNS
  TGI: > 100 µM
SNB-19 CNS
  TGI: > 100 µM
SR leukemia
  TGI: > 100 µM

## CS(=O)(=O)N(c1cc(-c2ccc3ncnc(Nc4ccc(F)c(Cl)c4)c3c2)cnc1Cl)S(C)(=O)=O
COLO 205 colon
  GI50: 1.32 µM
  TGI: 5.93 µM
HCC-2998 colon
  GI50: 1.58 µM
  TGI: 8.43 µM
HCT-116 colon
  GI50: 1.68 µM
  TGI: 6.7 µM
HOP-92 NSCLC
  GI50: 0.191 µM
  TGI: 1.73 µM
HT29 colon
  GI50: 1.07 µM
  TGI: 13.9 µM
IGROV1 ovarian
  GI50: 0.196 µM
  TGI: 0.786 µM
OVCAR-5 ovarian
  GI50: 0.795 µM
  TGI: 10.2 µM
SF-268 CNS
  GI50: 0.868 µM
  TGI: 7.61 µM
SNB-19 CNS
  GI50: 0.897 µM
  TGI: 9.9 µM
SR leukemia
  GI50: 4.35 µM
  TGI: > 100 µM

## CC(=O)Oc1ccc2c(c1)C(=O)c1nc(C)c(C)nc1C2=O
COLO 205 colon
  TGI: > 100 µM
HCC-2998 colon
  TGI: > 100 µM
HCT-116 colon
  TGI: > 100 µM
HOP-92 NSCLC
  TGI: > 100 µM
HT29 colon
  TGI: > 91.7 µM
IGROV1 ovarian
  TGI: > 100 µM
OVCAR-5 ovarian
  TGI: > 100 µM
SF-268 CNS
  TGI: > 100 µM
SNB-19 CNS
  TGI: > 93.8 µM
SR leukemia
  TGI: > 89 µM

## CC/C(=C/c1ccc(OC)cc1OC)[N+](=O)[O-]
COLO 205 colon
  GI50: 2.04 µM
  TGI: 4.24 µM
HCC-2998 colon
  GI50: 4.32 µM
  TGI: 15.8 µM
HCT-116 colon
  GI50: 1.65 µM
  TGI: 3.23 µM
HOP-92 NSCLC
  GI50: 4.27 µM
  TGI: 14.3 µM
HT29 colon
  GI50: 3.37 µM
  TGI: 11.1 µM
IGROV1 ovarian
  GI50: 3.4 µM
  TGI: 11.5 µM
OVCAR-5 ovarian
  GI50: 7.59 µM
  TGI: 22.2 µM
SF-268 CNS
  GI50: 3.28 µM
  TGI: 12.7 µM
SNB-19 CNS
  GI50: 4.35 µM
  TGI: 16.6 µM
SR leukemia
  GI50: 2.61 µM
  TGI: 17 µM

## Nc1ccc(/C=C/c2ccc3cccnc3c2)cc1
COLO 205 colon
  TGI: > 100 µM
HCC-2998 colon
  TGI: > 100 µM
HCT-116 colon
  TGI: > 100 µM
HOP-92 NSCLC
  TGI: > 100 µM
HT29 colon
  TGI: > 100 µM
OVCAR-5 ovarian
  TGI: > 100 µM
SF-268 CNS
  TGI: > 100 µM
SNB-19 CNS
  TGI: > 100 µM
SR leukemia
  TGI: > 100 µM

## CN(N)c1nc(N)c(C#N)c(C#N)c1C#N
COLO 205 colon
  TGI: > 10 µM
HCC-2998 colon
  TGI: > 10 µM
HCT-116 colon
  TGI: > 10 µM
HOP-92 NSCLC
  TGI: > 10 µM
HT29 colon
  TGI: > 10 µM
IGROV1 ovarian
  TGI: > 10 µM
OVCAR-5 ovarian
  TGI: > 10 µM
SF-268 CNS
  TGI: > 10 µM
SNB-19 CNS
  TGI: > 10 µM
SR leukemia
  TGI: > 10 µM

## COc1ccc2c(c1)CN1CCc3c(cc(OC)c(OC)c3OC)C1C2 (centres undefined)
COLO 205 colon
  TGI: > 100 µM
HCC-2998 colon
  TGI: > 100 µM
HCT-116 colon
  TGI: > 100 µM
HOP-92 NSCLC
  TGI: > 100 µM
HT29 colon
  TGI: > 100 µM
IGROV1 ovarian
  TGI: > 100 µM
OVCAR-5 ovarian
  TGI: > 100 µM
SF-268 CNS
  TGI: > 100 µM
SNB-19 CNS
  TGI: > 100 µM
SR leukemia
  TGI: > 100 µM
